The structures appear in SMILES notation. Bounds are passed on as bounds.

Chain of CYP46A1 (Q9Y6A2 whole entry): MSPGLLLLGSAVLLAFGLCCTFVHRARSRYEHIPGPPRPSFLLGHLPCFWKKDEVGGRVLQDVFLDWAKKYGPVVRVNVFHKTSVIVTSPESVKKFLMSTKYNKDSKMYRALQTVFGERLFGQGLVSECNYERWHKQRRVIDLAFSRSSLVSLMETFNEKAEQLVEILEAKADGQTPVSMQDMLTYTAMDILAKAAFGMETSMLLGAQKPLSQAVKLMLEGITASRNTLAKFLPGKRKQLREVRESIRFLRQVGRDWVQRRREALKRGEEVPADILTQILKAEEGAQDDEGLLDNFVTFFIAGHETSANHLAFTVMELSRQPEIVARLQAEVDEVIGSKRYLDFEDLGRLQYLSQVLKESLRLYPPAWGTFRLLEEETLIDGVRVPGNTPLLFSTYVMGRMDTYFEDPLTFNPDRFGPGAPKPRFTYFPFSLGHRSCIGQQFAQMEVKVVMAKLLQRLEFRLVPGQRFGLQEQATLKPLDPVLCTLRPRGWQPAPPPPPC

In the test the target is CYP46A1 (Homo sapiens, UniProt Q9Y6A2). The test is described as follows: CYP46A1 Enzyme Assay 2 (testosterone substrate, HPLC-MS). The test is classed as biochemical. To be noted: read-out: IC50 (CYP46A1 inhibitory activity). The essentials:
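CYP46A1 (5 μM final) with testosterone ([…] final) preincubated with compound 30 min at 37° C, reaction started with NADPH-generating system and run 15 min at 37° C. Quenched in methanol containing diclofenac internal standard; product read by HPLC-MS.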
One may read the IC50 as the midpoint of a concentration-inhibition curve. Take `N#CC1(Cc2cc(F)ccc2F)CCN(C(=O)c2cccnc2-c2ccncc2)CC1` [Compound A282, 1-([2,4′-bipyridine]-3-carbonyl)-4-(2,5-difluorobenzyl)piperidine-4-carbonitrile]: the IC50 was below 100 nM.

Take `N#CC1(Cc2cc(C(F)(F)F)ccc2F)CCN(C(=O)c2cccnc2-c2ccncc2)CC1` [Compound A283, 1-([2,4′-bipyridine]-3-carbonyl)-4-(2-fluoro-5-(trifluoromethyl)benzyl)piperidine-4-carbonitrile]: the half-inhibitory concentration (IC50) is below 100 nM.

For `N#CC1(Cc2ccc(F)cc2F)CCN(C(=O)c2cccnc2-c2ccncc2)CC1` [Compound A284, 1-([2,4′-bipyridine]-3-carbonyl)-4-(2,4-difluorobenzyl)piperidine-4-carbonitrile], the 50% inhibitory concentration (IC50) is below 100 nM.

`N#CC1(Cc2ccc(C(F)(F)F)cc2)CCN(C(=O)c2cccnc2-c2ccncc2)CC1` [Compound A285, 1-([2,4′-bipyridine]-3-carbonyl)-4-(4-(trifluoromethyl)benzyl)piperidine-4-carbonitrile]: the concentration for half-maximal inhibition (IC50) is below 100 nM.

For the compound `C[C@@H](c1ccc(C(F)(F)F)cc1F)C1(C#N)CCN(C(=O)c2cccnc2-c2ccncn2)CC1` [Compound A286, (R)-4-(1-(2-fluoro-4-(trifluoromethyl)phenyl)ethyl)-1-(2-(pyrimidin-4-yl)nicotinoyl)piperidine-4-carbonitrile], the IC50 was below 100 nM.

Regarding `C[C@H](c1ccc(C(F)(F)F)cc1F)C1(C#N)CCN(C(=O)c2cccnc2-c2ccncn2)CC1` [Compound A287, (S)-4-(1-(2-fluoro-4-(trifluoromethyl)phenyl)ethyl)-1-(2-(pyrimidin-4-yl)nicotinoyl)piperidine-4-carbonitrile], the IC50 was below 100 nM.

Values taken from patent US20220332699A1 (SAGE THERAPEUTICS, INC., priority 2019, published 2022).
